This is an account of results in patent US20260184708A1, “PYRIDAZINONES AND METHODS OF USE THEREOF” (GFB (ABC), LLC, priority 2017, published 2026).

The first experiment has as its target T1, TRPC5 (Homo sapiens, UniProt Q9UL62).
T1 construct: expressed in transfected cells; host or cells: HEK 293
T1 sequence (Q9UL62 1-973): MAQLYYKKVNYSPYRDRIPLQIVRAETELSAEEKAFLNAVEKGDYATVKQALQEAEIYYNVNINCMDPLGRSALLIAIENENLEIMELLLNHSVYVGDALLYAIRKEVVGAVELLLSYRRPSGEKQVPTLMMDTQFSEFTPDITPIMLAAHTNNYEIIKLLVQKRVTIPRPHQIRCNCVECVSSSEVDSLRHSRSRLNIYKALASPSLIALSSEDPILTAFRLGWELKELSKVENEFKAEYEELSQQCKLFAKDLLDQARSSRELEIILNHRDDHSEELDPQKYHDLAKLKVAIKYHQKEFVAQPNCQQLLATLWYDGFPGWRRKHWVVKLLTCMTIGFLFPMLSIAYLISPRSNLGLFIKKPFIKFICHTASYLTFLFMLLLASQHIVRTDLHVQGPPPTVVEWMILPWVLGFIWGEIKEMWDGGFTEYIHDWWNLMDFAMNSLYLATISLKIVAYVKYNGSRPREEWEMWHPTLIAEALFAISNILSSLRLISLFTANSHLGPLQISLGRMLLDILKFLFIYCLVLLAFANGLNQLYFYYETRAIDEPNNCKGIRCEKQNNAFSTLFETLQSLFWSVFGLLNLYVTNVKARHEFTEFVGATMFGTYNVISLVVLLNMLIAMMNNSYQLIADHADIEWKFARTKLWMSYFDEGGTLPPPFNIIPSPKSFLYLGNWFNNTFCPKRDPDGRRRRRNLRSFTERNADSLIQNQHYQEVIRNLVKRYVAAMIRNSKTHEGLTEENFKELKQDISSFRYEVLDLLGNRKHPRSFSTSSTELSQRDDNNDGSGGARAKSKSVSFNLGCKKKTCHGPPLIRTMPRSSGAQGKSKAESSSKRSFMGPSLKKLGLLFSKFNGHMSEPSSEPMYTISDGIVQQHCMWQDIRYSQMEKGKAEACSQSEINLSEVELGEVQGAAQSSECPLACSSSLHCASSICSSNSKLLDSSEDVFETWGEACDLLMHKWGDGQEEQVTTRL
In words: TRPC5 automated patch clamp assay (Qpatch), current block after rosiglitazone stimulation. The class given is cell-based. As to conditions: HEK293 cells overexpressing TRPC5; rosiglitazone stimulation; 80 mV; read-out: TRPC5_QP XC50_80. Here is the method: HEK 293 cells expressing human TRPC5 were harvested, re-suspended in serum free medium, and added to the automated platform and used within 2-3 hours. Internal and external physiological solutions were freshly prepared prior to the assay. The external solution contained: 145 mM NaCl, 4 mM KCl, 2 mM CaCl2), 1 mM MgCl2, 10 mM HEPES, 10 mM glucose, pH 7.4 with NaOH and 300 mOsm/L. The internal solution contained 120 mM L-aspartic acid, 120 mM CsOH·H2O, 20 mM CsCl, 2 mM MgCl2, 8.8 mM CaCl2), 10 mM EGTA, 10 mM HEPES, 10 mM Glucose, 0.1 mM GTP and 2 mM Na2ATP; pH 7.2 with CsOH and 290 mOsm/L. The free internal Ca2+ concentration was buffered to 1 μM.
The automated electrophysiological platform QPatch 16 from Sophion (Denmark) was used to carry out the compounds profiling. The series resistance and quality of seals were continuously monitored during the experiments. Data was analyzed using Sophion QPatch assay software 5.6 (Odense). IC50 values were calculated using a least squares regression algorithm (Hill equation).
To monitor the ion currents, a voltage ramp from −100 mV to +100 mV, over 300 ms, was applied every 10 seconds, from a holding potential of −60 mV.
After recording for a minimum of 60 seconds control period, Rosiglitazone (30 uM), was applied to activate the channel.
(In general: In patch-clamp work, channel activity is measured electrically.)
Consider `O=c1[nH]ncc(N2CCN(S(=O)(=O)c3ccccc3)CC2)c1Br`, for which the IC50 fell in the range of 10 to 500 µM.

In the case of `O=c1[nH]ncc(N2CCC(Cc3ccccc3)CC2)c1Br`, the IC50 was 10 to 500 µM.

For the molecule `Cc1ccccc1S(=O)(=O)N1CCN(c2cn[nH]c(=O)c2Br)CC1`, the IC50 was in the range of 10 to 500 µM.

Consider `CS(=O)(=O)N1CCN(c2cn[nH]c(=O)c2Br)CC1`, for which the IC50 lay within 10 to 500 µM.

Take `Cc1ccccc1CN1CCN(c2cn[nH]c(=O)c2)CC1`: the IC50 lay within 10 to 500 µM.

As to `Cc1ccccc1CN1CCCN(c2cn[nH]c(=O)c2Br)CC1`, the IC50 was in the range of 5 to 10 µM.

The same experiment, now with this note: HEK293 cells overexpressing TRPC5; rosiglitazone stimulation; 100 mV; read-out: TRPC5_QP XC50_100.
As to `O=c1[nH]ncc(N2CCN(S(=O)(=O)c3ccccc3)CC2)c1Br`, the IC50 was in the range of 10 to 500 µM.

With `O=c1[nH]ncc(N2CCC(Cc3ccccc3)CC2)c1Br`, the IC50 is 10 to 500 µM.

For the molecule `Cc1ccccc1S(=O)(=O)N1CCN(c2cn[nH]c(=O)c2Br)CC1`, the IC50 was 10 to 500 µM.

Take `CS(=O)(=O)N1CCN(c2cn[nH]c(=O)c2Br)CC1`: the IC50 lay within 10 to 500 µM.

As for `Cc1ccccc1CN1CCN(c2cn[nH]c(=O)c2)CC1`, the IC50 lay in the range of 10 to 500 µM.

Turning to `Cc1ccccc1CN1CCCN(c2cn[nH]c(=O)c2Br)CC1`, the IC50 lay in the range of 5 to 10 µM.

Staying with this experiment, now noted: Table 3; HEK293 cells overexpressing TRPC5; rosiglitazone stimulation; 80 mV; read-out: TRPC5_QP_ XC50_80.
Regarding `O=c1[nH]ncc(N2CCCNCC2)c1Br`, the IC50 lay in the range of 10 to 500 µM.

`Cc1cc(F)ccc1CN1CCN(c2cn[nH]c(=O)c2Br)CC1=O`: the IC50 was in the range of 1e-05 to 1 µM.

For `O=C1CN(c2cn[nH]c(=O)c2Cl)CCN1Cc1ccccc1C(F)(F)F`, the IC50 was 1e-05 to 1 µM.

Take `Cc1ccccc1CN1CCN(c2cn[nH]c(=O)c2Br)C(C)C1` (stereo not drawn) [drawing 647]: the IC50 is 1 to 5 µM.

As to `O=c1[nH]ncc(N2CCN(Cc3ccccc3C(F)(F)F)CC2)c1Cl` [drawing 694], the IC50 lay within 1 to 5 µM.

For `Cc1ccccc1C(C)N1CCN(c2cn[nH]c(=O)c2Br)CC1` (stereo not drawn), the IC50 was in the range of 1 to 5 µM.

Regarding `Cc1ccccc1CN1CCN(c2cn[nH]c(=O)c2N2CCOCC2)CC1=O`, the IC50 lay in the range of 10 to 500 µM.

`O=C1CN(c2cn[nH]c(=O)c2Cl)CCN1Cc1ccccc1OC(F)(F)F` [drawing 689]: the IC50 fell in the range of 1e-05 to 1 µM.

As for `Cn1ccnc1CN1CCN(c2cn[nH]c(=O)c2Br)CC1`, the IC50 lay in the range of 10 to 500 µM.

Turning to `Cc1ccccc1CN1CCN(c2cn[nH]c(=O)c2Br)CC1C` (stereo not drawn) [drawing 649], the IC50 fell in the range of 10 to 500 µM.

Still in this experiment, the particulars now being: Table 3; HEK293 cells overexpressing TRPC5; rosiglitazone stimulation; 100 mV; read-out: TRPC5_QP_ XC50_100.
Consider `O=c1[nH]ncc(N2CCCNCC2)c1Br`, for which the IC50 is 10 to 500 µM.

On to `Cc1cc(F)ccc1CN1CCN(c2cn[nH]c(=O)c2Br)CC1=O`, for which the IC50 lay within 1 to 5 µM.

For the molecule `O=C1CN(c2cn[nH]c(=O)c2Cl)CCN1Cc1ccccc1C(F)(F)F`, the IC50 lay in the range of 1e-05 to 1 µM.

As to `Cc1ccccc1CN1CCN(c2cn[nH]c(=O)c2Br)C(C)C1` (stereo not drawn) [drawing 647], the IC50 lay in the range of 1 to 5 µM.

Take `O=c1[nH]ncc(N2CCN(Cc3ccccc3C(F)(F)F)CC2)c1Cl` [drawing 694]: the IC50 lay within 1 to 5 µM.

In the case of `Cc1ccccc1C(C)N1CCN(c2cn[nH]c(=O)c2Br)CC1` (stereo not drawn), the IC50 was in the range of 1 to 5 µM.

On to `Cc1ccccc1CN1CCN(c2cn[nH]c(=O)c2N2CCOCC2)CC1=O`, for which the IC50 lay within 10 to 500 µM.

`O=C1CN(c2cn[nH]c(=O)c2Cl)CCN1Cc1ccccc1OC(F)(F)F` [drawing 689]: the IC50 lay in the range of 1e-05 to 1 µM.

In the case of `Cn1ccnc1CN1CCN(c2cn[nH]c(=O)c2Br)CC1`, the IC50 lay within 10 to 500 µM.

Regarding `Cc1ccccc1CN1CCN(c2cn[nH]c(=O)c2Br)CC1C` (stereo not drawn) [drawing 649], the IC50 lay within 10 to 500 µM.

The same experiment, now with this note: Table 4; HEK293 cells overexpressing TRPC5; rosiglitazone stimulation; 80 mV; read-out: TRPC5_QP_ XC50_80.
For the molecule `Cc1ccccc1CN1CCN(c2cn[nH]c(=O)c2Cl)C(C)C1` (stereo not drawn), the IC50 fell in the range of 1 to 5 µM.

Consider `O=C1CN(c2cn[nH]c(=O)c2Cl)CCN1Cc1ccc(F)cc1OC(F)(F)F`, for which the IC50 fell in the range of 1 to 5 µM.

Turning to `O=c1[nH]ncc(N2CCN(Cc3cccc4[nH]ncc34)CC2)c1Cl`, the IC50 lay within 10 to 500 µM.

Turning to `COCCOc1c(N2CCN(Cc3ccccc3C)C(=O)C2)cn[nH]c1=O`, the IC50 is 10 to 500 µM.

Consider `Cc1cc(C(F)(F)F)ccc1CN1CCN(c2cn[nH]c(=O)c2Cl)CC1`, for which the IC50 fell in the range of 10 to 500 µM.

Take `Cc1cc(F)ccc1CN1CCN(c2n[nH]c(=O)cc2C)CC1`: the IC50 fell in the range of 10 to 500 µM.

Take `O=c1[nH]ncc(N2CCOC(c3ccccc3)C2)c1Cl` (stereo not drawn): the IC50 was 10 to 500 µM.

Turning to `Cc1cc(Cl)ccc1CN1CCN(c2cn[nH]c(=O)c2Cl)CC1=O` [drawing 737], the IC50 lay within 1 to 5 µM.

Still in this experiment, the particulars now being: Table 4; HEK293 cells overexpressing TRPC5; rosiglitazone stimulation; 100 mV; read-out: TRPC5_QP_ XC50_100.
`Cc1ccccc1CN1CCN(c2cn[nH]c(=O)c2Cl)C(C)C1` (stereo not drawn): the IC50 was 1 to 5 µM.

For `O=C1CN(c2cn[nH]c(=O)c2Cl)CCN1Cc1ccc(F)cc1OC(F)(F)F`, the IC50 lay in the range of 1 to 5 µM.

As to `O=c1[nH]ncc(N2CCN(Cc3cccc4[nH]ncc34)CC2)c1Cl`, the IC50 lay in the range of 10 to 500 µM.

For the molecule `COCCOc1c(N2CCN(Cc3ccccc3C)C(=O)C2)cn[nH]c1=O`, the IC50 was 10 to 500 µM.

For `Cc1cc(C(F)(F)F)ccc1CN1CCN(c2cn[nH]c(=O)c2Cl)CC1`, the IC50 lay within 10 to 500 µM.

Turning to `Cc1cc(F)ccc1CN1CCN(c2n[nH]c(=O)cc2C)CC1`, the IC50 lay within 10 to 500 µM.

For `O=c1[nH]ncc(N2CCOC(c3ccccc3)C2)c1Cl` (stereo not drawn), the IC50 is 10 to 500 µM.

On to `Cc1cc(Cl)ccc1CN1CCN(c2cn[nH]c(=O)c2Cl)CC1=O` [drawing 737], for which the IC50 was 1 to 5 µM.
